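Tested at 5 concentrations; 48 h exposure; 96-well plates; endpoints linearly interpolated, else capped at highest concentration. GI50 is the concentration that inhibits growth by half.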 Activity calls are given as the source filed them. No stated cut-off is given here; in the data, active = GI50 up to about 1.1 µM and inactive = higher.
How the values were obtained:
Assay in all cases: DTP human tumour cell line panel, 48 h
SK-MEL-5 = system: SK-MEL-5
HCT-15 = system: HCT-15
COLO 205 = system: COLO 205
CCRF-CEM = system: CCRF-CEM
A498 = system: A498
SK-MEL-28 = system: SK-MEL-28
SNB-75 = system: SNB-75
786-0 = system: 786-0
OVCAR-8 = system: OVCAR-8
HCT-116 = system: HCT-116
SF-268 = system: SF-268
SF-295 = system: SF-295
SN12C = system: SN12C
SR = system: SR
SK-OV-3 = system: SK-OV-3
UACC-62 = system: UACC-62
ACHN = system: ACHN
A549 = system: A549

Row | Structure (SMILES) | GI50 (SK-MEL-5) | GI50 (HCT-15) | GI50 (COLO 205) | GI50 (CCRF-CEM) | GI50 (A498) | GI50 (SK-MEL-28) | GI50 (SNB-75) | GI50 (786-0) | GI50 (OVCAR-8) | GI50 (HCT-116) | GI50 (SF-268) | GI50 (SF-295) | GI50 (SN12C) | GI50 (SR) | GI50 (SK-OV-3) | GI50 (UACC-62) | GI50 (ACHN) | GI50 (A549)
1 | O=C(c1ccccc1)[C@H]1Nc2cnccc2C2c3ccccc3CC21 (stereo partly drawn) | 3.31 µM (inactive) | 8.95 µM | 19.8 µM (inactive) | 3.27 µM (inactive) | 25.9 µM (inactive) | 14.1 µM (inactive) | 16.2 µM (inactive) | 12.8 µM (inactive) | 8.24 µM (inactive) | 3.81 µM (inactive) | 7.35 µM (inactive) | 18.2 µM (inactive) | 8.59 µM (inactive) | 7.43 µM (inactive) | 20.2 µM (inactive) | 16.9 µM (inactive) | 13.8 µM (inactive) | 21.9 µM (inactive)
2 | CN1C(c2ccccc2)CC(C)(O)CC1c1ccccc1 (stereo not drawn) | > 100 µM (inactive) | > 100 µM | > 100 µM (inactive) | > 100 µM (inactive) | > 100 µM (inactive) | > 100 µM (inactive) | > 100 µM (inactive) | > 100 µM (inactive) | > 100 µM (inactive) | > 100 µM (inactive) | > 100 µM (inactive) | > 100 µM (inactive) | > 100 µM (inactive) | > 100 µM (inactive) | > 100 µM (inactive) | > 100 µM (inactive) | > 100 µM (inactive) | > 100 µM (inactive)
3 | CC(=O)OC(OC(C)=O)c1ncccc1C(=O)OC(C)C | 38.2 µM (inactive) | 33.8 µM | 47.4 µM (inactive) | 7.26 µM (inactive) | > 100 µM (inactive) | 1.18 µM (inactive) | 81.8 µM (inactive) | > 100 µM (inactive) | > 100 µM (inactive) | 57.8 µM (inactive) | 13.7 µM (inactive) | 42.4 µM (inactive) | > 100 µM (inactive) | 15.1 µM (inactive) | > 100 µM (inactive) | > 100 µM (inactive) | > 100 µM (inactive) | > 100 µM (inactive)
4 | O=CC1CCCc2ccccc21 (stereo not drawn) | > 100 µM (inactive) | > 51.5 µM | > 42.7 µM (inactive) | > 49.7 µM (inactive) | > 100 µM (inactive) | > 100 µM (inactive) | > 100 µM (inactive) | > 100 µM (inactive) | > 100 µM (inactive) | > 50.1 µM (inactive) | > 31.6 µM (inactive) | > 100 µM (inactive) | > 100 µM (inactive) | > 100 µM (inactive) | > 100 µM (inactive) | > 100 µM (inactive) | > 100 µM (inactive) | > 100 µM (inactive)
5 | O=C1CCC(=O)c2cc(Br)ccc2N1 | > 100 µM (inactive) | > 100 µM | > 100 µM (inactive) | > 68.9 µM (inactive) | > 100 µM (inactive) | > 100 µM (inactive) | > 100 µM (inactive) | > 100 µM (inactive) | > 100 µM (inactive) | > 40.8 µM (inactive) | > 100 µM (inactive) | > 100 µM (inactive) | > 100 µM (inactive) | 26.4 µM (inactive) | > 100 µM (inactive) | > 100 µM (inactive) | > 100 µM (inactive) | 98.6 µM (inactive)
6 | CC1CCC2c3c([nH]c4ccccc34)C3C(=O)N(c4ccccc4)C(=O)C3C2C1 (stereo not drawn) | > 100 µM (inactive) | > 250 µM | > 100 µM (inactive) | 20 µM (inactive) | 43.8 µM (inactive) | > 250 µM (inactive) | 2.65 µM (inactive) | 13.3 µM (inactive) | 43.5 µM (inactive) | 80.2 µM (inactive) | 22.9 µM (inactive) | 15 µM (inactive) | > 250 µM (inactive) | 65 µM (inactive) | 10.1 µM (inactive) | 30.1 µM (inactive) | 21.8 µM (inactive) | 90.8 µM (inactive)

From ChEMBL document CHEMBL1201862, “PubChem BioAssay data set” (2004)
